Results reported in patent publication US8802128B2, “Steroid-containing sustained release intraocular implants and related methods” (Allergan, Inc., priority 2006, dated 2014).

Legend:
[1] = in vivo; cited from earlier work
[2] = Relative water solubility of the steroids; format: physicochemical

SMILES | eyes with increase in brown pigment in the iris [1] | water solubility relative to beclomethasone dipropionate (times more soluble) [2]
CC(C)OC(=O)CCC/C=C\C[C@@H]1[C@@H](CC[C@@H](O)CCc2ccccc2)[C@H](O)C[C@@H]1O [latanoprost] | 5-15 % of human eyes | –
CC1(C)O[C@@H]2C[C@H]3[C@@H]4CCC5=CC(=O)C=C[C@]5(C)[C@@]4(F)[C@@H](O)C[C@]3(C)[C@]2(C(=O)CO)O1 [triamcinolone acetonide] | – | about 150 times
